Test results reported in patent US12329753B2, “Phosphodiesterase inhibitor treatment” (Cyrano Therapeutics, Inc., priority 2008, dated 2025).
Marks after values point to notes of the source that are not given here.

Tested on: patients with hyposmia
Experiment: Smell function tests (DT, RT, ME), forced-choice three-stimuli stepwise-staircase technique, open trial of oral theophylline
Type: in vivo, human
Settings: for detection threshold (DT), amyl acetate / detection threshold (DT), nitrobenzene / detection threshold (DT), pyridine / detection threshold (DT), thiophene / magnitude estimation (ME), amyl acetate / magnitude estimation (ME), nitrobenzene / magnitude estimation (ME), pyridine / magnitude estimation (ME), thiophene / recognition threshold (RT), amyl acetate / recognition threshold (RT), nitrobenzene / recognition threshold (RT), pyridine / recognition threshold (RT), thiophene: mean ± SEM
Description: Patients initially reported their sensory dysfunction as either loss of taste (i.e., flavor) and/or smell function. This subjective response was documented by objective psychophysical measurements of olfactory function administered to each patient by use of a forced-choice, three-stimuli, stepwise-staircase technique in a fixed, controlled design (1, 53). Efficacy of this technique and results of testing were previously documented in a double-blind clinical trial (53). Four odors were used; they were pyridine (dead-fish odor), nitrobenzene (bitter-almond odor), thiophene (petroleum-like odor) and amyl acetate (banana-oil odor). Detection thresholds (DT), recognition thresholds (RT) and magnitude estimation (ME) values for each odor were determined as previously described (1, 53). Thresholds were converted into bottle units (BU) as previously described (53) and results reported as M±SEM of correct responses for each odor in each treatment group; ME was reported in % and results calculated to obtain M±SEM for each treatment group for all correct responses using data for the four highest odor concentrations presented (from 10^−2M—an absolute odor concentration).
After determination of hyposmia, patients were treated in an open label, fixed design, controlled open trial. Patients were given an oral extended release theophylline in divided daily doses taken in the middle of breakfast and lunch. All patients were initially given 200 mg of theophylline; changes in this dose were made based upon subjective responses to therapy. If at a subsequent return visit, patients reported ≥5% subjective improvement in overall smell function, they continued on this same dose of theophylline and were reevaluated after four to six months of continued treatment. Results from any subsequent return from these improved patients were not included in any subsequent data report. All subsequent comparisons between treated and untreated patients were made only between those patients continuing in the study compared to their own measurements obtained in the untreated state. If patients reported <5% subjective improvement, their theophylline dose was increased by 200 mg daily and they were scheduled for retesting at the study site after two to four months at this new dosage. For patients that reported <5% improvement, this sequence continued until patients reached 800 mg of theophylline, at which time the study was considered completed.
Patients returned for reevaluation after two to four months of treatment. Measurements of blood serum theophylline were measured by a fluorescence polarization assay (Abbott, Chicago, IL). At this time, subjective changes in smell function were measured independently (compared to patient's memory of previous normal smell function monitored by use of the patients' daily measurements) using the scale from −100-0-+100 previously described (vs). After independently recording their subjective responses, smell function was measured for all four odors with DT, RT, ME and H determined without recourse to prior measurements.
Since data for all measurements from each patient group (local or distant) on each dose level were combined mean and SEM for each measurement (DT, RT, ME, H) of smell function for each treatment group were calculated on this basis. Differences in measurements between before treatment and each treatment level were calculated and significance of differences estimated using Student t tests (values p<0.05 considered significant). Some patient responses were also analyzed by use of non-parametric statistics (sign test) and the Spearman rank correlation technique; […] was considered significant related to smell loss type and treatment response. Since each patient served as his/her own control with respect to before and after treatment, paired t tests were also calculated; […] were considered significant. These values were not included in the results presented.

[1] = oral 200 mg daily, 2-6 months, all patients (199)
[2] = oral 200 mg, Type I hyposmia (57)
[3] = oral 400 mg daily, 2-6 months, all patients (120)
[4] = oral 400 mg, Type I hyposmia (33)
[5] = oral 600 mg daily, 2-12 months, all patients (160)
[6] = oral 600 mg, Type I hyposmia (51)
[7] = oral 800 mg daily, 2-12 months, all patients (28)
[8] = oral 800 mg, Type I hyposmia (12)

Cn1c(=O)c2[nH]cnc2n(C)c1=O [theophylline]
detection threshold (DT), amyl acetate [1]: 7.9 ± 0.2^c BU
detection threshold (DT), nitrobenzene [1]: 7.8 ± 0.2^d BU
detection threshold (DT), pyridine [1]: 7.6 ± 0.2^a BU
detection threshold (DT), thiophene [1]: 7.5 ± 0.2^c BU
magnitude estimation (ME), amyl acetate [1]: 15 ± 2^d %
magnitude estimation (ME), nitrobenzene [1]: 17 ± 2^ %
magnitude estimation (ME), pyridine [1]: 28 ± 2^a %
magnitude estimation (ME), thiophene [1]: 21 ± 2^ %
recognition threshold (RT), amyl acetate [1]: 9.9 ± 0.2^c BU
recognition threshold (RT), nitrobenzene [1]: 9.5 ± 0.2^a BU
recognition threshold (RT), pyridine [1]: 9.0 ± 0.2^a BU
recognition threshold (RT), thiophene [1]: 9.1 ± 0.2^c BU
detection threshold (DT), amyl acetate [2]: 10.5 ± 0.3^d BU
detection threshold (DT), nitrobenzene [2]: 10.3 ± 0.3^a BU
detection threshold (DT), pyridine [2]: 9.5 ± 0.2 BU
detection threshold (DT), thiophene [2]: 10.1 ± 0.3^d BU
recognition threshold (RT), amyl acetate [2]: 11.3 ± 0.2^ BU
recognition threshold (RT), nitrobenzene [2]: 11.2 ± 0.2^d BU
recognition threshold (RT), thiophene [2]: 11.4 ± 0.2^ BU
total mean increase in ME, all odors (oral 400 mg): 10.4%
detection threshold (DT), amyl acetate [3]: 7.1 ± 0.3^b BET
detection threshold (DT), nitrobenzene [3]: 7.2 ± 0.3^c BET
detection threshold (DT), pyridine [3]: 7.0 ± 0.3^c BET
detection threshold (DT), thiophene [3]: 6.8 ± 0.4^c BET
magnitude estimation (ME), amyl acetate [3]: 18 ± 2^c %
magnitude estimation (ME), nitrobenzene [3]: 23 ± 2^a %
magnitude estimation (ME), thiophene [3]: 26 ± 2^c %
recognition threshold (RT), nitrobenzene [3]: 8.9 ± 0.3^b BU
recognition threshold (RT), pyridine [3]: 8.5 ± 0.3^a BU
recognition threshold (RT), thiophene [3]: 8.4 ± 0.3^a BU
detection threshold (DT), amyl acetate [4]: 10.1 ± 0.5^a BU
detection threshold (DT), pyridine [4]: 8.8 ± 0.5 BU
recognition threshold (RT), amyl acetate [4]: 11.2 ± 0.3^ BU
recognition threshold (RT), nitrobenzene [4]: 10.9 ± 0.4^e BU
recognition threshold (RT), thiophene [4]: 10.8 ± 0.4^d BU
detection threshold (DT), amyl acetate [5]: 7.8 ± 0.3^a BET
detection threshold (DT), nitrobenzene [5]: 7.8 ± 0.3^a BET
detection threshold (DT), pyridine [5]: 7.4 ± 0.2^c BET
detection threshold (DT), thiophene [5]: 7.1 ± 0.3^a BET
magnitude estimation (ME), amyl acetate [5]: 15 ± 2^c %
magnitude estimation (ME), nitrobenzene [5]: 18 ± 2^d %
magnitude estimation (ME), pyridine [5]: 26 ± 2^d %
magnitude estimation (ME), thiophene [5]: 21 ± 2^d %
recognition threshold (RT), amyl acetate [5]: 9.6 ± 0.2^a BU
recognition threshold (RT), nitrobenzene [5]: 9.1 ± 0.2^c BU
recognition threshold (RT), pyridine [5]: 9.4 ± 0.2^c BU
recognition threshold (RT), thiophene [5]: 9.0 ± 0.3^c BU
detection threshold (DT), amyl acetate [6]: 10.1 ± 0.3^a BU
recognition threshold (RT), amyl acetate [6]: 11.1 ± 0.2^c BU
recognition threshold (RT), nitrobenzene [6]: 10.8 ± 0.3^e BU
recognition threshold (RT), pyridine [6]: 10.9 ± 0.3 BU
recognition threshold (RT), thiophene [6]: 10.9 ± 0.3^b BU
detection threshold (DT), amyl acetate [7]: 7.2 ± 0.8 BU
detection threshold (DT), nitrobenzene [7]: 7.0 ± 0.8^d BU
detection threshold (DT), thiophene [7]: 7.2 ± 0.7 BU
magnitude estimation (ME), amyl acetate [7]: 24 ± 2^a %
magnitude estimation (ME), nitrobenzene [7]: 25 ± 6 ^ %
magnitude estimation (ME), pyridine [7]: 29 ± 5%
magnitude estimation (ME), thiophene [7]: 20 ± 4%
recognition threshold (RT), amyl acetate [7]: 9.0 ± 0.5^b BU
recognition threshold (RT), nitrobenzene [7]: 7.8 ± 0.8^d BU
recognition threshold (RT), pyridine [7]: 8.5 ± 0.6^c BU
recognition threshold (RT), thiophene [7]: 9.6 ± 0.6 BU
detection threshold (DT), amyl acetate [8]: 10.6 ± 0.5^ BU
detection threshold (DT), nitrobenzene [8]: 10.1 ± 0.8^ BU
detection threshold (DT), pyridine [8]: 9.6 ± 0.8 BU
recognition threshold (RT), amyl acetate [8]: 11.6 ± 0.4^ BU
recognition threshold (RT), nitrobenzene [8]: 11.3 ± 0.7^ BU
recognition threshold (RT), pyridine [8]: 10.3 ± 1.0 BU
recognition threshold (RT), thiophene [8]: 11.6 ± 0.2^ BU
